Measured values published in patent US12043599B2, “Herbicidal compounds” (SYNGENTA PARTICIPATIONS AG, priority 2018, dated 2024).

How the values were obtained:
Format in all cases: in vivo
Conditions in all cases: 250 g/h, evaluated after 13 days
[1] = system: Avena fatua (AVEFA); experiment: Post-emergence herbicidal glasshouse test, percentage damage
Protocol: (§1) Seeds of a variety of test species are sown in standard soil in pots (Lolium perenne (LOLPE), Setaria faberi (SETFA), Alopecurus myosuroides (ALOMY), Echinochloa crus-galli (ECHCG), Avena fatua (AVEFA)). After cultivation for one day (pre-emergence) or after 8 days cultivation (post-emergence) under controlled conditions in a glasshouse (at 24/16° C., day/night; 14 hours light; 65% humidity), the plants are sprayed with an aqueous spray solution derived from the formulation of the technical active ingredient in acetone/water (50:50) solution containing 0.5% Tween 20 (polyoxyethelyene sorbitan monolaurate, CAS RN 9005-64-5). Compounds are applied at […]. The test plants are then grown in a glasshouse under controlled conditions in a glasshouse (at 24/16° C., day/night; 14 hours light; 65% humidity) and watered twice daily. After 13 days for pre and post-emergence, the test is evaluated for the percentage damage caused to the plant. The biological activities are shown in the following table on a five point scale (5=80-100%; 4=60-79%; 3=40-59%; 2=20-39%; 1=0-19%).

[2] = system: Lolium perenne (LOLPE); experiment: as above
Protocol: as §1

[3] = system: Echinochloa crus-galli (ECHCG); experiment: as above
Protocol: as §1

[4] = system: Setaria faberi (SETFA); experiment: Pre-emergence herbicidal glasshouse test, percentage damage
Protocol: as §1

[5] = system: Avena fatua (AVEFA); experiment: as above
Protocol: as §1

[6] = system: Lolium perenne (LOLPE); experiment: as above
Protocol: as §1

[7] = system: Echinochloa crus-galli (ECHCG); experiment: as above
Protocol: as §1

[8] = system: Setaria faberi (SETFA); experiment: Post-emergence herbicidal glasshouse test, percentage damage
Protocol: as §1
Using procedures outlines above, wheat and barley crop plants and a weed species (SETFA) are treated post-emergence with compound A11 of the present invention or comparator compound C1 (Compound A-38 from WO2014/096289) at the application rates indicated. The compounds were also applied to wheat in conjunction with the safener compound cloquintocet-mexyl (CQC) at 50 g/ha.

Compound	AVEFA POST percentage damage (five point scale) [1]	LOLPE POST percentage damage (five point scale) [2]	ECHCG POST percentage damage (five point scale) [3]	SETFA PRE percentage damage (five point scale) [4]	AVEFA PRE percentage damage (five point scale) [5]	LOLPE PRE percentage damage (five point scale) [6]	ECHCG PRE percentage damage (five point scale) [7]	SETFA POST percentage damage (five point scale) [8]
CC#Cc1cc(C)c(C2C(=O)CC3(CCN(C(=O)c4cc(C)nc(C)n4)CC3)CC2=O)c(C)c1 [Compound A122]	5 (5=80-100%)	5 (5=80-100%)	5 (5=80-100%)	5 (5=80-100%)	5 (5=80-100%)	5 (5=80-100%)	5 (5=80-100%)	5 (5=80-100%)
CC#Cc1cc(C)c(C2C(=O)CC3(CCN(C(=O)C4CCOC4)CC3)CC2=O)c(C)c1 (centres unmarked) [Compound A129]	5 (5=80-100%)	5 (5=80-100%)	5 (5=80-100%)	5 (5=80-100%)	5 (5=80-100%)	5 (5=80-100%)	5 (5=80-100%)	5 (5=80-100%)
CC#Cc1cc(C)c(C2C(=O)CC3(CCN(C4=NOC(C)(C)C4)CC3)CC2=O)c(C)c1 [Compound A143]	5 (5=80-100%)	5 (5=80-100%)	5 (5=80-100%)	5 (5=80-100%)	4 (4=60-79%)	5 (5=80-100%)	5 (5=80-100%)	5 (5=80-100%)
CC#Cc1cc(C)c(C2C(=O)CC3(CCN(C(=O)NC(=O)C4CC4)CC3)CC2=O)c(C)c1 [Compound A141]	5 (5=80-100%)	5 (5=80-100%)	5 (5=80-100%)	5 (5=80-100%)	4 (4=60-79%)	5 (5=80-100%)	5 (5=80-100%)	5 (5=80-100%)
CC#Cc1cc(C)c(C2C(=O)CC3(CCN(C(=O)c4nn(C)nc4C)CC3)CC2=O)c(C)c1 [Compound A134]	5 (5=80-100%)	5 (5=80-100%)	5 (5=80-100%)	5 (5=80-100%)	5 (5=80-100%)	5 (5=80-100%)	5 (5=80-100%)	5 (5=80-100%)
CC#Cc1cc(C)c(C2C(=O)CC3(CCN(C(=O)NC(=O)CC)CC3)CC2=O)c(C)c1 [Compound A108]	5 (5=80-100%)	5 (5=80-100%)	5 (5=80-100%)	5 (5=80-100%)	5 (5=80-100%)	5 (5=80-100%)	5 (5=80-100%)	5 (5=80-100%)
CC#Cc1cc(C)c(C2=C(OC(=O)OC)CC3(CCN(C(=O)c4ccncc4)CC3)CC2=O)c(C)c1 [Compound P45]	5 (5=80-100%)	5 (5=80-100%)	5 (5=80-100%)	5 (5=80-100%)	5 (5=80-100%)	5 (5=80-100%)	5 (5=80-100%)	5 (5=80-100%)
CC#Cc1cc(C)c(C2C(=O)CC3(CCN(C(=O)c4cn(C)cn4)CC3)CC2=O)c(C)c1 [Compound A117]	5 (5=80-100%)	5 (5=80-100%)	5 (5=80-100%)	5 (5=80-100%)	2 (2=20-39%)	4 (4=60-79%)	5 (5=80-100%)	5 (5=80-100%)
CC#Cc1cc(C)c(C2C(=O)CC3(CCN(C(=O)c4cnc(C#N)s4)CC3)CC2=O)c(C)c1 [Compound A106]	5 (5=80-100%)	3 (3=40-59%)	3 (3=40-59%)	4 (4=60-79%)	2 (2=20-39%)	3 (3=40-59%)	4 (4=60-79%)	5 (5=80-100%)
CC#Cc1cc(C)c(C2C(=O)CC3(CCN(C(=O)c4ncccc4C#N)CC3)CC2=O)c(C)c1 [Compound A114]	5 (5=80-100%)	5 (5=80-100%)	5 (5=80-100%)	5 (5=80-100%)	4 (4=60-79%)	5 (5=80-100%)	5 (5=80-100%)	5 (5=80-100%)
CC#Cc1cc(C)c(C2C(=O)CC3(CCN(C(=O)NC(=O)C(C)C)CC3)CC2=O)c(C)c1 [Compound A142]	5 (5=80-100%)	5 (5=80-100%)	5 (5=80-100%)	5 (5=80-100%)	4 (4=60-79%)	5 (5=80-100%)	5 (5=80-100%)	5 (5=80-100%)
CC#Cc1cc(C)c(C2C(=O)CC3(CCN(C(=O)c4nnc(C)o4)CC3)CC2=O)c(C)c1 [Compound A119]	5 (5=80-100%)	5 (5=80-100%)	5 (5=80-100%)	5 (5=80-100%)	5 (5=80-100%)	5 (5=80-100%)	5 (5=80-100%)	5 (5=80-100%)
CC#Cc1cc(C)c(C2C(=O)CC3(CCN(C(=O)c4cncs4)CC3)CC2=O)c(C)c1 [Compound A118]	5 (5=80-100%)	5 (5=80-100%)	5 (5=80-100%)	5 (5=80-100%)	5 (5=80-100%)	5 (5=80-100%)	5 (5=80-100%)	5 (5=80-100%)
CC#Cc1cc(C)c(C2C(=O)CC3(CCN(C(=O)c4ccnn4C)CC3)CC2=O)c(C)c1 [Compound A136]	5 (5=80-100%)	5 (5=80-100%)	5 (5=80-100%)	5 (5=80-100%)	5 (5=80-100%)	5 (5=80-100%)	5 (5=80-100%)	5 (5=80-100%)
CC#Cc1cc(C)c(C2C(=O)CC3(CCN(S(=O)(=O)c4cnccn4)CC3)CC2=O)c(C)c1 [Compound A107]	5 (5=80-100%)	5 (5=80-100%)	5 (5=80-100%)	4 (4=60-79%)	4 (4=60-79%)	5 (5=80-100%)	3 (3=40-59%)	5 (5=80-100%)
CC#Cc1cc(C)c(C2=C(OC(=O)OC)CC3(CCN(C(=O)NC(=O)c4ccccn4)CC3)CC2=O)c(C)c1 [Compound P46]	5 (5=80-100%)	5 (5=80-100%)	5 (5=80-100%)	5 (5=80-100%)	2 (2=20-39%)	5 (5=80-100%)	5 (5=80-100%)	5 (5=80-100%)
